Test results as given in US6670368B1, “Pyrimidine compounds with pharmaceutical activity” (AstraZeneca AB, priority 1999, dated 2003).

Target: T1, CDK4/Cyclin D1 (Homo sapiens, UniProt P11802)
T1 construct: made in house; host or cells: SF21 (Spodoptera frugiperda) insect cells, baculovirus co-infection, vector pVL1393
Experiment: in vitro kinase assay (Scintillation Proximity Assay), incorporation of [γ-33-P]-ATP into GST-Retinoblastoma
Assay type: biochemical
Conditions: CDK4/Cyclin D1 partially-purified enzyme, GST-Rb substrate, 0.2 μM ATP, room temperature 60 minutes; read-out: CDK4 inhibitory activity IC50
Description: The compounds were tested in an in vitro kinase assay in 96 well format using Scintillation Proximity Assay (SPA-obtained from Amersham) for measuring incorporation of [γ-33-P]-Adenosine Triphosphate into a test substrate (GST-Retinoblastoma). In each well was placed the compound to be tested (diluted in DMSO and water to correct concentrations) and in control wells either p16 as an inhibitor control or DMSO as a positive control.
Approximately 0.5 μl of CDK4/Cyclin D1 partially-purified enzyme (amount dependent on enzyme activity) diluted in 25 μl incubation buffer was added to each well then 20 μl of GST-Rb/ATP/ATP33 mixture (containing 0.5 μg GST-Rb and 0.2 μM ATP and 0.14 μCi [γ-33-P]-Adenosine Triphosphate), and the resulting mixture shaken gently, then incubated at room temperature for 60 minutes. To each well was then added 150 μL stop solution containing (0.8 mg/well of Protein A-PVT SPA bead (Amersham)), 20 pM/well of Anti-Glutathione Transferase, Rabbit IgG (obtained from Molecular Probes), 61 mM EDTA and 50 mM HEPES pH 7.5 containing 0.05% sodium azide.
The plates were sealed with Topseal-S plate sealers, left for two hours then spun at 2500 rpm, 1124×g., for 5 minutes. The plates were read on a Topcount for 30 seconds per well. […]

T1 sequence (P11802 whole entry): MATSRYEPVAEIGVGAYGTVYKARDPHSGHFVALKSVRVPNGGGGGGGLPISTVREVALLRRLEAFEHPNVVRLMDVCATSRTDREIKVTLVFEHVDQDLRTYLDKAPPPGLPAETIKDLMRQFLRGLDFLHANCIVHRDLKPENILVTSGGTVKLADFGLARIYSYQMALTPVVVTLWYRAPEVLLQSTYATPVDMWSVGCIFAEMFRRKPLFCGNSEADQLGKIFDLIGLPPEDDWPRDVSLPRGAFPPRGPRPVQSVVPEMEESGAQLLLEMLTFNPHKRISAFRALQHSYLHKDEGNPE
T1 sequence (P24385 whole entry partner): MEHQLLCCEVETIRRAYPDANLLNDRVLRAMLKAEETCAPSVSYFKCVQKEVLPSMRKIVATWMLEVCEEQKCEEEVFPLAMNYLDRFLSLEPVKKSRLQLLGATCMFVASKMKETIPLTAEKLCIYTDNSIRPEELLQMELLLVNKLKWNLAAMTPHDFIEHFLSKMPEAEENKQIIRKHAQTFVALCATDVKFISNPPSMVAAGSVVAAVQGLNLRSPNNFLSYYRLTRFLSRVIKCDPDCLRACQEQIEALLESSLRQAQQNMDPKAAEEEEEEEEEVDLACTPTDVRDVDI

IC50: 1.2 µM
Compound: Cc1ccc(C)c(Oc2cc(Nc3ccc(OCC(O)CN(C)C)cc3)ncn2)c1 (stereo not shown) [Example 6]
